Usually melting point stands for the temperature, or range, at which the solid turns liquid. A word on the IC50: it is the point on the concentration scale where inhibition reaches its midpoint.

The values below come from patent publication US6403805B1 (Janssen Pharmaceutica N.V., priority 1995, dated 2002).

Where a name gives a salt, the structure may show the parent alone.

In data set [1] the target is T1, recombinant human MNL phosphodiesterase type IV B (Homo sapiens, UniProt Q07343).
T1 construct: made in house; host or cells: insect cells infected with recombinant baculovirus
The experiment in a line: Inhibition of recombinant human mononuclear lymphocyte (MNL) phosphodiesterase type IV B produced in insect cells with a baculovirus vector. The settings on record: recombinant human MNL PDE IV B; 0.8 μM 3H-cAMP, pH 8, 37° C.; calculated graphically. In kind it is biochemical. Here is the method: Inhibition of recombinant human mononuclear lymphoctye (MNL) phosphodiesterase type IV B produced in insect cells with a baculovirus vector
The alleviating and/or curing effect of the instant compounds on allergic and atopic diseases was assessed by an in vitro assay system to detect an inhibiting effect on the recombinant human MNL phosphodiesterase type IV B.
Seventy-two hours after infection with recombinant baculovirus, the insect cells were harvested and pelleted at 500 g for 5 minutes. The cells were lysed in 10 ml lysis-buffer consisting of 20 mM Tris, 10 mM EGTA, 2 mM Na2EDTA, 1% Triton-X-100, 1 mM Na3VO4, 10 mM NaF, 2 μg/ml of leupeptine, pepstatine and aprotinine, 0.3 μg/ml benzamidine and 100 μg/ml TPCK pH 7.5. After 5 minutes on ice, solubilized cells were centrifuged at 4000 rpm for 15 minutes at 4° C. The resulting supernatant was filtered through a 0.45 μm filter (Millipore) and brought to TBS buffer (50 mM Tris, 150 mM NaCl pH 7.4).
After washing the column with equilibration buffer, PDE IV was eluted in 1.5 ml fractions containing 37.5 μl 1M Tris pH 8. The fractions were dialyzed overnight against 20 mM Tris, 2 mM Na2EDTA and 400 mM NaCl pH 7.5 and tested for PDE IV activity. Identification was done on SDS PAGE and Western Blot (anti-FLAG-M2). Active fractions were pooled, brought to 10% glycerol and stored at −70° C.
The incubation mixture (pH 8) (200 μl) contained 20 mM Tris, 10 mM magnesium sulphate, 0.8 μM ^3H-cAMP (310 mCi/mmole) and the phosphodiesterase type IV, the amount depending on the enzymatic activity.
When the effect of different compounds on phosphodiesterase activity was tested, the medium without cAMP was incubated with the compound(s) or its carrier (DMSO-1% final concentration) for 5 min. The enzymatic reaction was started by addition of ^3H-cAMP and stopped 10 min later after transferring the microtiter-plate in a waterbath at 100° C. for 5 min. After cooling to room temperature, alkaline phosphatase (0.25 μg/ml) was added and the mixture was incubated at 37° C. for 20 min. 100 μl of the mixture was subsequently applied to a GF-B filter-microtiter-plate (Millipore) filled with 300 μl DEAE-Sephadex-A25 suspension. The plate was washed 3 times with 75 μl 20 mM Tris pH 7.5 and the filtrates were collected for counting in the Packard Top Count scintillation counter.
The inhibiting effect of the present compounds on recombinant human MNL phosphodiesterase PDE IV B was measured at different concentrations of the instant compounds. The IC50 values (expressed in M) were calculated graphically from the thus obtained inhibition values.

For data set [2], the system named is dextran-induced oedema formation in mouse ear. Put plainly: Dextran-induced oedema formation in mouse ear. Type of data set: in vivo, Male Swiss mice. The settings on record: Mus musculus, 1 h; oral dose of 5 mg/kg in PEG-200, one hour before i.v. dextran T500/pontamine sky-blue; vs background blueing value; read-out: % inhibition of the extravasation of the dye. As to the method:
Dextran-induced oedema formation in mouse ear Systemic injection of dextran T500 in normal, non-sensitized mice elicits increased vascular permeability, leading to extravasation and oedema of the extremities. When dextran is injected together with a blue dye, blueing of the ears is the most prominent feature of oedematous response. Male Swiss mice weighting 24-26 g were orally pretreated with the test compound dissolved in PEG-200 at different concentrations or solvent. One hour later, the mice were given an intravenous injection with an isotonic saline solution containing 12 mg/ml dextran T500 and 2.6 mg/ml pontamine sky-blue dye, in a volume of 0.1 ml per 10 g body weight. One hour and forty-five minutes later, the animals are sacrificed by ether and their ears removed. Extraction and quantification of the extravasated dye is done as described by Van Wauwe and Goossens (Drug Dev. Res. 1986, 8, 213-218). The extravasation of the dye is characterized by the blueing value which is defined as the concentration of the extracted dye in both ears. The background blueing value was determined once as the mean blueing value obtained by injecting a group of mice with a saline solution containing only dextran T500 and the blue dye. Table 6 lists the percentage inhibition of the extravasation of the dye when compared with the background extravasation of the dye when the test compound was administered at a dose of 5 mg/kg. The test compounds indicated by an asterisk (*) were tested at a dose of 2.5 mg/kg

T1 sequence (Q07343 whole entry): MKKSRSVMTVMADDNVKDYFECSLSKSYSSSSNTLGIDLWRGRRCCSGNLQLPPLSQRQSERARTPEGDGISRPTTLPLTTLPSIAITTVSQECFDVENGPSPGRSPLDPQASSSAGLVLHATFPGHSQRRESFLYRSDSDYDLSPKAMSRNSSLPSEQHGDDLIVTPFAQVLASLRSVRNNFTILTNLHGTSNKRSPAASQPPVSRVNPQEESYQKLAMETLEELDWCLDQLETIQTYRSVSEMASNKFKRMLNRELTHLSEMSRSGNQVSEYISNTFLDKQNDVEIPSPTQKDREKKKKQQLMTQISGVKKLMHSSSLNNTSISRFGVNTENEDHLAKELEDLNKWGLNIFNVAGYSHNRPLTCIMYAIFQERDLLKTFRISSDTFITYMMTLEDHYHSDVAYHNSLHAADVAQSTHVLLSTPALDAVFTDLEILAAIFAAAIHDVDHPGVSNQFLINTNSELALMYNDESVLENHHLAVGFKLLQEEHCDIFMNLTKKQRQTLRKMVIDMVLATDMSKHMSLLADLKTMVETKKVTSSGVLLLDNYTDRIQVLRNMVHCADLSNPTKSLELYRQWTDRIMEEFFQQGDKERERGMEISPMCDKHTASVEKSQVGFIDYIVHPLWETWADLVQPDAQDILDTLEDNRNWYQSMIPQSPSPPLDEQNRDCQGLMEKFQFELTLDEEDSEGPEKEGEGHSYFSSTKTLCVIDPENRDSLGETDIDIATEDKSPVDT

Turning to `COc1ccc(C2(Cn3ccn(Cc4ccccc4)c3=O)CC2)cc1OC` [Compound 21, 1-[[1-(3,4-dimethoxyphenyl)cyclopropyl]methyl]-1,3-dihydro-3-(phenylmethyl)-2H-imidazol-2-one], the melting point was 110.5 °C.

`COc1ccc(C(N)CN2CCN(Cc3ccccc3)C2=O)cc1OC` (racemic) (as salt: hydrochloric acid salt) [Compound 11, (±)-1-[2-amino-2-(3,4-dimethoxyphenyl)ethyl]-3-(phenylmethyl)-2-imidazolidinone] came in with a melting point of 221.7 °C.

`CCOC(Cn1cc[nH]c1=O)c1ccc(OC)c(OC)c1` (racemic) [Compound 15, (±)-1-[2-(3,4-dimethoxyphenyl)-2-ethoxyethyl]-1,3-dihydro-2H-imidazol-2-one]: the melting point was 133.6 °C.

`COc1ccc(C(C)(O)Cn2cc[nH]c2=O)cc1OC1CCCC1` (racemic) [Compound 12, (±)-1-[2-[3-(cyclopentyloxy)-4-methoxyphenyl]-2-hydroxypropyl]-1,3-dihydro-2H-imidazol-2-one] showed a melting point of 136.2 °C. The IC50 in data set [1] is 290 nM. Further, the inhibition in vivo at 5 mg/kg in data set [2] came to 87.5%.

Turning to `COc1ccc(C(CN2CCN(Cc3ccccc3)C2=O)NC(C)=O)cc1OC` (racemic) [Compound 14, (±)-N-[1-(3,4-dimethoxyphenyl)-2-[2-oxo-3-(phenylmethyl)-1-imidazolidinyl]ethyl]acetamide], the melting point came out at 156.4 °C. Besides, in data set [2], the inhibition in vivo at 5 mg/kg came out at 32.3%.

In the case of `COc1ccc(C(Cn2cc[nH]c2=O)OC)cc1OC` (centres unmarked) [Compound 83, 1,3-dihydro-1-[2-(3,4-dimethoxyphenyl)-2-methoxy-ethyl]-2H-imidazol-2-one], the IC50 in data set [1] was 2700 nM. In data set [2], the inhibition in vivo at 5 mg/kg worked out at 18.6%.

For `CC(Cn1cc[nH]c1=O)c1ccc(OC(F)F)c(OCc2ccccc2)c1` (centres unmarked) [Compound 34], in data set [1], the IC50 was 190 nM. Moreover, the inhibition in vivo at 5 mg/kg in data set [2] is 31.1%.

For `COc1ccc(CCn2cc[nH]c2=O)cc1OC` [Compound 79, 1,3-dihydro-1-[2-(3,4-dimethoxyphenyl)ethyl]-2H-imidazol-2-one], the IC50 in data set [1] is 770 nM. In addition, the inhibition in vivo at 5 mg/kg in data set [2] was 61.6%.
